{"source": "patent US4574080A", "about": "“Combination formulation” (A/S Alfred Benzon, priority 1982, dated 1986)", "key": {"[1]": {"assay": "Diuretic effect (urine volume) in healthy subjects", "format": "in vivo, human (healthy subjects)", "conditions": "clopamide 20 mg", "procedure": "Complete balanced cross-over study with single dose administration.\nBlood samples were collected 36 hours and urine samples 24 hours after administration.\n10 healthy subjects without any history of renal, hepatic, gastrointestinal or heart disease.\nClopamide 20 mg and potassium chloride 2400 mg (32 mEq):\nTwo days before drug administration and throughout the test days the volunteers were kept on a low potassium diet (less than 30 mEq) and a standardized calorie intake of about 2000 kcal per day. No tea, coffee or alcohol was allowed. For the individual person the diet was identical on all six test days (2 period of 3 days).\nThe day before drug aministration the volunteers were given 100 ml water every hour from 09.00 a.m. during the next 12 hours, i.e. 1300 ml water per day. The same procedure was followed on the test day.\nBlood samples were drawn before dosing and 1, 2, 3, 4, 6, 8, 12, 24 and 36 hours after. Urine was collected quantitatively 24 hours before drug administration and 24 hours after in aliquots: 0-1 h, 1-2 h, 2-3 h, 3-4 h, 4-6 h, 6-8 h, 8-12 h, and 12-24 h.\nData which fulfil the requirement for using parametric tests were analyzed by a three-way analysis of variance, splitting the total variation up into variations between subjects, treatment periods, treatment and residual. Logarithmic transformations of the variables have been used in appropriate cases."}, "[2]": {"assay": "Adhesion of clopamide to (film-coated) potassium chloride crystals after dry coating / mechanical stress", "format": "physicochemical", "conditions": "for A: amount of clopamide adhered immediately after the dry coating / B: clopamide adhered per dose of finished granulate / C: clopamide removed during mixing of the granulate (A-B): Table 2, Talc 2.0 ×", "procedure": "A sample containing film-coated KCl-crystals with clopamide adhered to the surface was placed on a sieve.\nThe sieve and sample were shaken (Pascal sieve, model 1) for 15 minutes. The quantity of clopamide adhered to the film-coated crystals was then determined as described under Content Uniformity (clopamide)\nThe amount of clopamide adhered was determined as described under MATERIALS AND METHODS. In Table 1, the influence of the anti-adhesive and the coating time on the adhesion tendency of clopamide is shown.\nAs a considerable amount of the clopamide (about 20%) is removed by the admixture of the necessary auxiliary materials for the tabletting process (vide Table 1), it was examined whether a more gentle, but more laborious method in which the auxiliary materials are premixed separately, thus reducing the final mixing time, would reduce this removal.\nThe examinations were carried out as described above for the examination of the adhesion tendency of clopamide, and the amount of clopamide adhered was again determined as described under MATERIALS AND METHODS; the dry coating time was 60 minutes. The results are shown in Table 3 wherein A, B and C are as described above, and D designates the relative amount of adhered clopamide abrased during the final mixing [formula]"}, "[3]": {"conditions": "treatment days compared to control days"}, "[4]": {"conditions": "Colloidal silicon dioxide 0.13 × the amount of clopamide, coating time 10 min"}, "[5]": {"conditions": "Colloidal silicon dioxide 0.13 × the amount of clopamide, coating time 30 min"}, "[6]": {"conditions": "Colloidal silicon dioxide 0.13 × the amount of clopamide, coating time 60 min"}, "[7]": {"conditions": "gentle admixture of auxiliary materials (5 min), coating time 60 min"}, "[8]": {"conditions": "usual admixture of auxiliary materials (11 min), coating time 60 min"}, "[9]": {"conditions": "Talc 2.0 × the amount of clopamide, coating time 10 min"}, "[10]": {"conditions": "Talc 2.0 × the amount of clopamide, coating time 30 min"}, "[11]": {"conditions": "Talc 2.0 × the amount of clopamide, coating time 60 min"}, "[12]": {"conditions": "Talc […] the amount of clopamide, coating time 10 min"}, "[13]": {"conditions": "Talc […] the amount of clopamide, coating time 30 min"}, "[14]": {"conditions": "Talc […] the amount of clopamide, coating time 60 min"}}}
{"smiles": "C[C@@H]1CCC[C@H](C)N1NC(=O)c1ccc(Cl)c(S(N)(=O)=O)c1", "note": "[Clopamide, 4-chloro-N--(cis-2,6-dimethylpiperidino)-3-sulfamoyl-benzamide]", "values": [{"measurement": "total 24 h urine, percent of that of control days", "setting": "[1]; 95% CI 138.9 to 185.3%", "value": 160.4, "unit": "%"}, {"measurement": "24 hours urine volume (in words)", "setting": "[1]; [3]", "value": "statistically significant increase"}, {"measurement": "hourly maximal urine volume (in words)", "setting": "[1]; [3]", "value": "statistically significant increase"}, {"measurement": "A: amount of clopamide adhered in percent of the theoretical dose immediately after the dry coating", "setting": "[2]; [4]", "value": 70.4, "unit": "%"}, {"measurement": "B: percentage of the theoretical dose of clopamide adhered per dose of finished granulate", "setting": "[2]; [4]", "value": 60.2, "unit": "%"}, {"measurement": "C: percentage of a dose of clopamide removed during the mixing of the granulate (A-B)", "setting": "[2]; [4]", "value": 10.2, "unit": "%"}, {"measurement": "A: amount of clopamide adhered in percent of the theoretical dose immediately after the dry coating", "setting": "[2]; [5]", "value": 75.2, "unit": "%"}, {"measurement": "B: percentage of the theoretical dose of clopamide adhered per dose of finished granulate", "setting": "[2]; [5]", "value": 58.8, "unit": "%"}, {"measurement": "C: percentage of a dose of clopamide removed during the mixing of the granulate (A-B)", "setting": "[2]; [5]", "value": 16.4, "unit": "%"}, {"measurement": "A: amount of clopamide adhered in percent of the theoretical dose immediately after the dry coating", "setting": "[2]; [6]", "value": 85.8, "unit": "%"}, {"measurement": "B: percentage of the theoretical dose of clopamide adhered per dose of finished granulate", "setting": "[2]; [6]", "value": 66.6, "unit": "%"}, {"measurement": "C: percentage of a dose of clopamide removed during the mixing of the granulate (A-B)", "setting": "[2]; [6]", "value": 19.2, "unit": "%"}, {"measurement": "A: amount of clopamide adhered immediately after the dry coating", "setting": "[2]; [7]", "value": 83.0, "unit": "%"}, {"measurement": "B: clopamide adhered per dose of finished granulate", "setting": "[2]; [7]", "value": 70.0, "unit": "%"}, {"measurement": "C: clopamide removed during mixing of the granulate (A-B)", "setting": "[2]; [7]", "value": 13.0, "unit": "%"}, {"measurement": "A: amount of clopamide adhered immediately after the dry coating", "setting": "[2]; [8]", "value": 86.2, "unit": "%"}, {"measurement": "B: clopamide adhered per dose of finished granulate", "setting": "[2]; [8]", "value": 70.6, "unit": "%"}, {"measurement": "C: clopamide removed during mixing of the granulate (A-B)", "setting": "[2]; [8]", "value": 15.6, "unit": "%"}, {"measurement": "A: amount of clopamide adhered in percent of the theoretical dose immediately after the dry coating", "setting": "[2]; [9]", "value": 76.4, "unit": "%"}, {"measurement": "B: percentage of the theoretical dose of clopamide adhered per dose of finished granulate", "setting": "[2]; [9]", "value": 53.8, "unit": "%"}, {"measurement": "C: percentage of a dose of clopamide removed during the mixing of the granulate (A-B)", "setting": "[2]; [9]", "value": 22.6, "unit": "%"}, {"measurement": "A: amount of clopamide adhered in percent of the theoretical dose immediately after the dry coating", "setting": "[2]; [10]", "value": 87.6, "unit": "%"}, {"measurement": "B: percentage of the theoretical dose of clopamide adhered per dose of finished granulate", "setting": "[2]; [10]", "value": 65.4, "unit": "%"}, {"measurement": "C: percentage of a dose of clopamide removed during the mixing of the granulate (A-B)", "setting": "[2]; [10]", "value": 22.2, "unit": "%"}, {"measurement": "A: amount of clopamide adhered in percent of the theoretical dose immediately after the dry coating", "setting": "[2]; [11]", "value": 86.2, "unit": "%"}, {"measurement": "B: percentage of the theoretical dose of clopamide adhered per dose of finished granulate", "setting": "[2]; [11]", "value": 70.6, "unit": "%"}, {"measurement": "C: percentage of a dose of clopamide removed during the mixing of the granulate (A-B)", "setting": "[2]; [11]", "value": 15.6, "unit": "%"}, {"measurement": "A: amount of clopamide adhered in percent of the theoretical dose immediately after the dry coating", "setting": "[2]; [12]", "value": 96.4, "unit": "%"}, {"measurement": "B: percentage of the theoretical dose of clopamide adhered per dose of finished granulate", "setting": "[2]; [12]", "value": 65.0, "unit": "%"}, {"measurement": "C: percentage of a dose of clopamide removed during the mixing of the granulate (A-B)", "setting": "[2]; [12]", "value": 31.4, "unit": "%"}, {"measurement": "A: amount of clopamide adhered in percent of the theoretical dose immediately after the dry coating", "setting": "[2]; [13]", "value": 88.4, "unit": "%"}, {"measurement": "B: percentage of the theoretical dose of clopamide adhered per dose of finished granulate", "setting": "[2]; [13]", "value": 69.8, "unit": "%"}, {"measurement": "C: percentage of a dose of clopamide removed during the mixing of the granulate (A-B)", "setting": "[2]; [13]", "value": 18.6, "unit": "%"}, {"measurement": "A: amount of clopamide adhered in percent of the theoretical dose immediately after the dry coating", "setting": "[2]; [14]", "value": 100.2, "unit": "%"}, {"measurement": "B: percentage of the theoretical dose of clopamide adhered per dose of finished granulate", "setting": "[2]; [14]", "value": 78.6, "unit": "%"}, {"measurement": "C: percentage of a dose of clopamide removed during the mixing of the granulate (A-B)", "setting": "[2]; [14]", "value": 21.6, "unit": "%"}, {"measurement": "effect of increased coating time on adhesion (in words)", "setting": "[2]; talc as anti-adhesive", "value": "not only an increased adhesion, but also a more resistant adhesion"}, {"measurement": "amount of clopamide removed by the admixture of the auxiliary materials", "setting": "[2]; vide Table 1", "value": "about 20%"}]}
